Data taken from patent publication US10501518B2 (priority 2013, dated 2019).
Entries after “also recorded” stand apart in the source; their conditions may differ.

Assays:
WT rat PTHR-1 = target: T1, WT rat PTHR-1 (Rattus norvegicus, UniProt P25961); test: cAMP GloSensor dose-response in GR-35 cells expressing rat PTHR-1; assay type: cell-based; conditions: for cAMP (rPTHR-1) Max / EC50: Table 2; for cAMP (rPTHR-1) Max: luminescence counts per second relative to PTH(1-34); for cAMP (rPTHR-1) Max / Max: 12-16 minutes after ligand addition; for EC50: read-out: cAMP (rPTHR-1) EC50; for Fold nM PTH(1-34) / Max: Table 7; for Fold nM PTH(1-34): EC50 relative to PTH(1-34); for Max: GR-35 cells, mean ± SEM
T1 construct: expressed in transfected cells
T1 sequence (P25961 27-591): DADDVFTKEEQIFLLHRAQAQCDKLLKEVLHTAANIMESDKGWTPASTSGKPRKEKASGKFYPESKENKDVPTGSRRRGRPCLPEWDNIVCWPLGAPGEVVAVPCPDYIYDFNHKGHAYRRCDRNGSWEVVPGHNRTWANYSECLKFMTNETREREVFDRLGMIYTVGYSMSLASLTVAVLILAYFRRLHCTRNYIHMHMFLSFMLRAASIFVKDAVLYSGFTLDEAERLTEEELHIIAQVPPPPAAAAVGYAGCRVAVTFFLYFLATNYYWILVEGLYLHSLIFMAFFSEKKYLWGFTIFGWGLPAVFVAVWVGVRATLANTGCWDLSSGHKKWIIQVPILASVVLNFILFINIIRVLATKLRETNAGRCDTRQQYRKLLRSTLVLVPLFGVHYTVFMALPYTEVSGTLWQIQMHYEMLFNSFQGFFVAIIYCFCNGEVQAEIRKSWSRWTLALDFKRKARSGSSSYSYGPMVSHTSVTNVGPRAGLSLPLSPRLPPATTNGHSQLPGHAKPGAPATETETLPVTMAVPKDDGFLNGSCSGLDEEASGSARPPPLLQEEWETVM

rPTHR-1 = target: T2, rPTHR-1 (Rattus norvegicus, UniProt P25961); test: Washout assay of cAMP response in GR-35 cells; assay type: cell-based; conditions: for AUC-on / AUC-washout / AUC Ratio: Table 11; for AUC-on: luminescence AUC in the 14 minutes before washout, PTH(1-34), D6, M-PTH(1-34) 0.3 nM, B5 3 nM; for AUC-washout: luminescence AUC in the 120 minutes following washout; for AUC Ratio: ratio of AUC-washout to AUC-on; for cAMP response following washout, in words: rPTHR-1-expressing cells, relative to PTH(1-34)
T2 construct: expressed in transfected cells
T2 sequence (P25961 27-591): T1 sequence (P25961 27-591)
Experimental: FIGS. 11A and 11B present the results of rPTHR-1 washout experiments. Assays of cAMP accumulation were performed using HEK-293-derived cell lines stably transfected to express the luciferase-based cAMP GloSensor™-brand protein along with WT-rPTHR-1 (GR-35 cells). Data are means (±SEM) of n=3 (M-PTH) or n=5 experiments, each performed in quadruplicate. […] Ligand was applied and luminescence was recorded for 14 minutes thereafter. FIG. 11B depicts data for the accumulation of cAMP following ligand wash-out in cells expressing the rPTHR-1. The cells from FIG. 11A were removed from the plate reader at the end of the 14-min “ligand-on” phase, rinsed twice to remove unbound ligand, treated with fresh medium containing luciferin, and luminescence was again recorded for an additional 120 min of “wash-out.” Luminescence was recorded using a PerkinElmer Envision plate reader; cells were preloaded with luciferin for 30 min before ligand addition.
HEK293 cell monolayers expressing rat PTHR-1 (GR35 cells) were treated with ligand in for 14 minutes. This buffer was then discarded, and the cell monolayer was rinsed (2×). Buffer containing luciferin was introduced for 120 minutes. Luminescence response was recorded before and after washout, with luminescence readings recorded every 2 minutes. The area under the curve (AUC) for luminescence response curve was determined using GraphPad Prism. See […] for a graphs depicting the average of n=3 (M-PTH) or n=5 washout experiments. See Table 11 for a description of composite data from n=3 or 5 washout experiments.
Data were processed by using the Microsoft Excel and GraphPad Prism 4.0 software packages. Data from binding and cAMP dose-response assays were analyzed using a sigmoidal dose-response model with variable slope. Washout responses were assessed by quantifying the area under the luminescence response curve (AUC) following washout. Post-washout AUC was normalized by dividing the post-washout AUC by the pre-washout AUC. Paired data sets were statistically compared by using Student's t test (two-tailed) assuming unequal variances for the two sets.

[1] = Calcemic response in mice after subcutaneous injection; assay type: in vivo; conditions: 20 nmol/kg
Experimental: (§1) Compound concentrations were determined by submitting plasma to a cAMP GloSensor assay, quantification of luminescence readout, and conversion to peptide concentration via standard curve. […] See also FIGS. 12A, 12B and 12C.
Mice (C57BL/6, male, age 9-12 weeks) were treated in accordance with the ethical guidelines adopted by Massachusetts General Hospital. […] Blood was withdrawn just prior to injection (t=0) or at times thereafter. Tail vein blood was collected and immediately used for analysis. Blood Ca^2+ concentration was measured with a Chiron Diagnostics model 634 Ca^2+/pH analyzer.

[2] = In vivo pharmacokinetics: peptide content of mouse plasma by cAMP GloSensor assay; conditions: mice, subcutaneous injection, 20 nmol/kg
Experimental: as §1
FIG. 12 B is a magnification of FIG. 12A to highlight the data from early time points. FIG. 12 C is a dose-response curve used to convert the raw luminescence time course found in FIG. 12A to the peptide concentration time course found in FIG. 3B. This curve was generated from a single assay run immediately before assessing the raw luminescence time course.
Blood was withdrawn just prior to injection (t=0) or at times thereafter. Tail vein blood was collected and treated with protease inhibitors (aprotinin, leupeptin, EDTA), centrifuged to remove blood cells, mixed with cAMP response assay buffer, and administered to GP2.3 cells. The raw luminescence readouts recorded in this assay were converted to blood peptide concentrations through use of a standard curve relating luminescence response to known peptide concentrations under identical assay conditions.

PTH2R/PTH1R = test: cAMP response selectivity between PTH2R and PTH1R; assay type: cell-based; conditions: most selective; for cAMP response PTH1R/PTH2R: Table 17
From the text: Selected analogs containing beta-amino acid substitutions selectively signal through one or the other of the two receptors. Without being bound to any underling biological phenomenon or mechanism, PTHR-2 likely serves an alternative function to PTHR-1 as it is highly expressed in the central nervous system. In contrast, PTHR-1 is highly expressed in bone and kidney, but not in the CNS. The analogs disclosed herein are thus useful as therapeutic compounds that a specific agonists or antagonists of PTHR-1 and PTHR-2.

cAMP (rPTHR-1) Max (WT rat PTHR-1)	AUC-on (rPTHR-1)	AUC-washout (rPTHR-1)	level / persistence in the mouse bloodstream [2]	SMILES	EC50 (WT rat PTHR-1)	Fold nM PTH(1-34) (WT rat PTHR-1)	Max (WT rat PTHR-1)	AUC Ratio (rPTHR-1)	cAMP response following washout, in words (rPTHR-1)	calcemic response (blood Ca^2+ concentration) [1]	cAMP response PTH1R/PTH2R (PTH2R/PTH1R)	cAMP response PTH2R/PTH1R (PTH2R/PTH1R; Table 16)
0.78	130,000 ± 50,000	84,000 ± 23,000	prolonged bioavailability	CC[C@H](C)[C@H](NC(=O)[C@H](CCC(=O)O)NC(=O)[C@H](CO)NC(=O)[C@@H](NC(=O)[C@@H](N)CO)C(C)C)C(=O)N[C@@H](CCC(N)=O)C(=O)N[C@@H](CC(C)C)C(=O)N[C@@H](CCSC)C(=O)N[C@@H](Cc1c[nH]cn1)C(=O)N[C@@H](CC(N)=O)C(=O)N[C@@H](CC(C)C)C(=O)NCC(=O)N[C@@H](CCCCN)C(=O)N[C@@H](Cc1c[nH]cn1)C(=O)N[C@@H](CC(C)C)C(=O)N[C@@H](CC(N)=O)CC(=O)N[C@@H](CO)C(=O)N[C@@H](CCSC)C(=O)N[C@@H](CCC(=O)O)C(=O)N[C@@H](CCCNC(=N)N)CC(=O)N[C@H](C(=O)N[C@@H](CCC(=O)O)C(=O)N[C@@H](Cc1c[nH]c2ccccc12)C(=O)N[C@H](CC(=O)N[C@@H](CCCNC(=N)N)C(=O)N[C@@H](CCCCN)C(=O)N[C@@H](CCCCN)C(=O)N[C@H](CC(=O)N[C@@H](CCC(N)=O)C(=O)N[C@@H](CC(=O)O)C(=O)N[C@H](C(=O)N[C@@H](CCC(N)=O)CC(=O)N[C@@H](CC(N)=O)C(=O)N[C@@H](Cc1ccccc1)C(N)=O)C(C)C)CC(C)C)CC(C)C)C(C)C [B5]	1.45 nM	3.49	51 ± 21 luminescence counts per second × 10−3	0.80 ± 0.16	short-lived cAMP response	more transient rise in Ca^2+ concentration relative to PTH(1-34)	43	–
1.00	92,000 ± 34,000	100,000 ± 25,000	consistently lower than the level of B5	CC[C@H](C)[C@H](NC(=O)[C@H](CCC(=O)O)NC(=O)[C@H](CO)NC(=O)[C@@H](NC(=O)[C@@H](N)CO)C(C)C)C(=O)N[C@@H](CCC(N)=O)C(=O)N[C@@H](CC(C)C)C(=O)N[C@@H](CCSC)C(=O)N[C@@H](Cc1cnc[nH]1)C(=O)N[C@@H](CC(N)=O)C(=O)N[C@@H](CC(C)C)C(=O)NCC(=O)N[C@@H](CCCCN)C(=O)N[C@@H](Cc1cnc[nH]1)C(=O)N[C@@H](CC(C)C)C(=O)N[C@@H](CC(N)=O)C(=O)N[C@@H](CO)C(=O)N[C@@H](CCSC)C(=O)N[C@@H](CCC(=O)O)C(=O)N[C@@H](CCCN=C(N)N)C(=O)N[C@H](C(=O)N[C@@H](CCC(=O)O)C(=O)N[C@@H](Cc1c[nH]c2ccccc12)C(=O)N[C@@H](CC(C)C)C(=O)N[C@@H](CCCN=C(N)N)C(=O)N[C@@H](CCCCN)C(=O)N[C@@H](CCCCN)C(=O)N[C@@H](CC(C)C)C(=O)N[C@@H](CCC(N)=O)C(=O)N[C@@H](CC(=O)O)C(=O)N[C@H](C(=O)N[C@@H](Cc1cnc[nH]1)C(=O)N[C@@H](CC(N)=O)C(=O)N[C@@H](Cc1ccccc1)C(=O)O)C(C)C)C(C)C [PTH(1-34), reference compound]	–	–	65 ± 31 luminescence counts per second × 10−3	–	–	transient rise in the blood concentration of Ca^2+, which peaks after about one hour	0.9	1.1

SMILES	cAMP (rPTHR-1) Max (WT rat PTHR-1)	AUC-on (rPTHR-1)	AUC-washout (rPTHR-1)	level / persistence in the mouse bloodstream [2]	EC50 (WT rat PTHR-1)	Fold nM PTH(1-34) (WT rat PTHR-1)	Max (WT rat PTHR-1)	AUC Ratio (rPTHR-1)	cAMP response following washout, in words (rPTHR-1)	calcemic response (blood Ca^2+ concentration) [1]	cAMP response PTH1R/PTH2R (PTH2R/PTH1R)	cAMP response PTH2R/PTH1R (PTH2R/PTH1R; Table 16)
CC[C@H](C)[C@H](NC(=O)[C@H](CCC(=O)O)NC(=O)[C@H](CO)NC(=O)[C@@H](NC(=O)[C@@H](N)CO)C(C)C)C(=O)N[C@@H](CCC(N)=O)C(=O)N[C@@H](CC(C)C)C(=O)N[C@@H](CCSC)C(=O)N[C@@H](Cc1cnc[nH]1)C(=O)N[C@@H](CC(N)=O)C(=O)N[C@@H](CC(C)C)C(=O)NCC(=O)N[C@@H](CCCCN)C(=O)N[C@H](CC(=O)N[C@@H](CC(C)C)C(=O)N[C@@H](CC(N)=O)C(=O)N[C@@H](CO)C(=O)N[C@@H](CCSC)CC(=O)N[C@@H](CCC(=O)O)C(=O)N[C@@H](CCCNC(=N)N)C(=O)N[C@H](C(=O)N[C@@H](CCC(=O)O)CC(=O)N[C@@H](Cc1c[nH]c2ccccc12)C(=O)N[C@@H](CC(C)C)C(=O)N[C@@H](CCCNC(=N)N)C(=O)N[C@@H](CCCCN)CC(=O)N[C@@H](CCCCN)C(=O)N[C@@H](CC(C)C)C(=O)N[C@@H](CCC(N)=O)C(=O)N[C@@H](CC(=O)O)CC(=O)N[C@H](C(=O)N[C@@H](Cc1cnc[nH]1)C(=O)N[C@@H](CC(N)=O)C(=O)N[C@H](CC(N)=O)Cc1ccccc1)C(C)C)C(C)C)Cc1c[nH]c2ccccc12 [D6]	0.76	100,000 ± 36,000	130,000 ± 37,000	persists even longer in the bloodstream than does B5; also recorded: persists much longer in the mouse bloodstream than does PTH(1-34)	0.33 nM	0.79	50 ± 15 luminescence counts per second × 10−3	1.50 ± 0.35	comparable to that of PTH(1-34)	sustained, with no diminution six hours after injection	33	–
